# Source: the supplement of paper PMC10307832
# Compound: CN1CCN(CC1)C2=CC(=C(C=C2)NC3=NC=C4C(=N3)N(C5=CC=CC=C5C(=O)N4C)C)OC [XMD8-85] + O=C(c1cc(Cc2n[nH]c(=O)c3ccccc23)ccc1F)N1CCN(C(=O)C2CC2)CC1 [Olaparib] (partner 8 µM)
# Assay: relative viability (nuclei count vs DMSO), 5 days (fraction); higher = more cells survive
# Conditions: first compound 8 µM
# Method in brief: (§1)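 Values are medians from duplicate plates. Each reflects relative viability, defined as the nuclei count of treated wells over that of vehicle wells. Lung cancer cell lines in 1536-well plates were pin-tool dosed one day after seeding with one drug alone or with a fixed anchor-drug dose plus five library-drug doses (not always all listed) in √10 steps, then fixed, stained and imaged at 4× after 5 days.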
row,Cell Line,relative viability
1,NCI-H2087,0.533
2,NCI-H2126,0.94
3,NCI-H2170,0.532
4,NCI-H2347,0.559

# Compound: O=C(O)C(Cc1ccccc1[N+](=O)[O-])=NNc1nc(-c2ccc(Cl)c(Cl)c2)cs1 (mixture of isomers) [4EGI-1] + Nc1ncn([C@H]2C[C@H](O)[C@@H](CO)O2)c(=O)n1 [Decitabine] (partner 2 µM)
# Assay: as above
# Conditions: first compound 0.5 µM
# Method in brief: as §1
row,Cell Line,relative viability
1,LCLC-97TM1,0.278
2,LCLC-103H,0.778
3,LK-2,0.273
4,LOU-NH91,0.841
5,LU99A,0.879
6,LXF-289,0.436
7,NCI-H23,0.331
8,NCI-H322M,0.692
9,NCI-H358,0.218
10,NCI-H441,0.262
11,NCI-H460,0.562
12,NCI-H596,1.01
13,NCI-H647,0.433
14,NCI-H650,0.352
15,NCI-H727,0.731
16,NCI-H838,0.469
17,NCI-H1355,0.364

row,Cell Line,relative viability
1,NCI-H1395,0.746
2,NCI-H1437,0.58
3,NCI-H1651,0.626
4,NCI-H1666,0.749
5,NCI-H1734,0.569
6,NCI-H1755,0.718
7,NCI-H1793,0.557
8,NCI-H1915,0.27
9,NCI-H1944,0.502
10,NCI-H1975,0.367
11,NCI-H1993,0.74
12,NCI-H2085,0.536
13,NCI-H2087,0.376
14,NCI-H2126,0.611
15,NCI-H2170,0.502
16,NCI-H2347,0.68

# Same assay, conditions: first compound 1.581 µM
row,Cell Line,relative viability
1,LCLC-103H,0.733
2,LU99A,0.699
3,LXF-289,0.346
4,NCI-H358,0.203
5,NCI-H441,0.258
6,NCI-H460,0.246
7,NCI-H596,1.11
8,NCI-H647,0.309
9,NCI-H727,0.854
10,NCI-H838,0.509
11,NCI-H1355,0.36
12,NCI-H1437,0.593
13,NCI-H1651,0.553
14,NCI-H1666,0.609
15,NCI-H1734,0.535
16,NCI-H1755,0.676
17,NCI-H1793,0.333
18,NCI-H1915,0.226
19,NCI-H1975,0.433
20,NCI-H1993,0.548
21,NCI-H2085,0.578
22,NCI-H2087,0.338
23,NCI-H2126,0.65
24,NCI-H2170,0.449
25,NCI-H2347,0.649

# Same assay, conditions: first compound 5 µM
row,Cell Line,relative viability
1,LCLC-97TM1,0.23
2,LCLC-103H,0.688
3,LK-2,0.318
4,LOU-NH91,0.815
5,LU99A,0.83
6,LXF-289,0.391
7,NCI-H23,0.337
8,NCI-H322M,0.764
9,NCI-H358,0.189
10,NCI-H441,0.251
11,NCI-H460,0.476
12,NCI-H596,1.16
13,NCI-H647,0.391
14,NCI-H650,0.34
15,NCI-H727,0.858
16,NCI-H838,0.389
17,NCI-H1355,0.358

row,Cell Line,relative viability
1,NCI-H1395,0.817
2,NCI-H1437,0.544
3,NCI-H1651,0.734
4,NCI-H1666,0.758
5,NCI-H1734,0.519
6,NCI-H1755,0.654
7,NCI-H1793,0.442
8,NCI-H1915,0.259
9,NCI-H1944,0.427
10,NCI-H1975,0.375
11,NCI-H1993,0.588
12,NCI-H2085,0.513
13,NCI-H2087,0.258
14,NCI-H2126,0.617
15,NCI-H2170,0.459
16,NCI-H2347,0.569

# Same assay, conditions: first compound 15.81 µM
row,Cell Line,relative viability
1,LCLC-97TM1,0.248
2,LCLC-103H,0.666
3,LK-2,0.315
4,LOU-NH91,0.658
5,LU99A,0.851
6,LXF-289,0.359
7,NCI-H23,0.45
8,NCI-H322M,0.636
9,NCI-H358,0.138
10,NCI-H441,0.244
11,NCI-H460,0.188
12,NCI-H596,0.942
13,NCI-H647,0.218
14,NCI-H650,0.332
15,NCI-H727,0.808
16,NCI-H838,0.312
17,NCI-H1355,0.328

row,Cell Line,relative viability
1,NCI-H1395,0.695
2,NCI-H1437,0.435
3,NCI-H1651,0.576
4,NCI-H1666,0.564
5,NCI-H1734,0.463
6,NCI-H1755,0.697
7,NCI-H1793,0.427
8,NCI-H1915,0.247
9,NCI-H1944,0.404
10,NCI-H1975,0.355
11,NCI-H1993,0.619
12,NCI-H2085,0.488
13,NCI-H2087,0.218
14,NCI-H2126,0.472
15,NCI-H2170,0.441
16,NCI-H2347,0.586

# Same assay, conditions: first compound 50 µM
row,Cell Line,relative viability
1,LCLC-97TM1,0.124
2,LCLC-103H,0.458
3,LK-2,0.166
4,LOU-NH91,0.686
5,LU99A,0.508
6,LXF-289,0.287
7,NCI-H23,0.2
8,NCI-H322M,0.727
9,NCI-H358,0.115
10,NCI-H441,0.18
11,NCI-H460,0.0663
12,NCI-H596,0.569
13,NCI-H647,0.155
14,NCI-H650,0.322
15,NCI-H727,0.606
16,NCI-H838,0.238
17,NCI-H1355,0.336
18,NCI-H1395,0.515
19,NCI-H1437,0.221
20,NCI-H1651,0.286
21,NCI-H1666,0.495
22,NCI-H1734,0.29
23,NCI-H1755,0.618
24,NCI-H1793,0.238
25,NCI-H1915,0.215
26,NCI-H1944,0.344
27,NCI-H1975,0.221
28,NCI-H1993,0.462
